Source: BindingDB's records for doi:10.1021/np000120k (The University of Tokyo, 2000)
Converted amounts (≈) assume the structure as drawn. Starred links: 1 amine or outer side, 2 acyl side, 3 side chain; linkers in the order of their positions; H or OH if unused. Positions of bridges follow the written chain, without caps; N, C: chain ends. Non-standard residues stand in square brackets, D forms with d. Residues, ends and D or L forms follow the SMILES beside them. NMehTyr = CN[C@@H](CCc1ccc(O)cc1)C(=O)O; hTyr = N[C@@H](CCc1ccc(O)cc1)C(=O)O; CO = O=C([*:1])[*:2]

Molecular target: T1, Carboxypeptidase A1 (Homo sapiens, UniProt P15085)
T1 sequence (P15085 whole entry): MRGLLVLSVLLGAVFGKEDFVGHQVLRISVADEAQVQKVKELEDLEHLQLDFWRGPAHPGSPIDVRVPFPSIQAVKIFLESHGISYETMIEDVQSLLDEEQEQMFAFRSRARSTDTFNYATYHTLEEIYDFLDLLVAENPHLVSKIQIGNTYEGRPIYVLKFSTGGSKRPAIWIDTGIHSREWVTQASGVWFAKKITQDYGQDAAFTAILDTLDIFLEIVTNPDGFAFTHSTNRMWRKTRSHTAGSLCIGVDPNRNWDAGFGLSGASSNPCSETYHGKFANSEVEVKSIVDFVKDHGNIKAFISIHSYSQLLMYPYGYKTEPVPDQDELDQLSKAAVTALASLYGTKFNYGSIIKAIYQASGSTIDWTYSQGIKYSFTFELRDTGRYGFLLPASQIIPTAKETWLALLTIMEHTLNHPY
Assay: Inhibition of carboxypeptidase A

IC50: 7 ng/mL (≈ 7.53 nM)
SMILES: CC[C@H](C)[C@@H]1NC(=O)[C@H](NC(=O)N[C@@H](Cc2ccc(O)cc2)C(=O)O)CCCCNC(=O)[C@H]([C@@H](C)CC)NC(=O)[C@H](CCc2ccc(O)cc2)N(C)C(=O)[C@H](CCc2ccc(O)cc2)NC1=O [Anabaenopeptin G] ({Tyr-CO}-[dK]I[hTyr][NMehTyr]I; lactam 1-C)
